The results in this text go back to ChEMBL document CHEMBL6120994, “Unravelling the potential of natural chelating agents in the control of Staphylococcus aureus and Pseudomonas aeruginosa biofilms” (Eur J Med Chem, 2025).

Usually inhibition stands for the change of the read-out against control, counted positive when it falls. The MIC is the least concentration at which growth counts as inhibited.

In brackets after ≈: the same amount, converted by molar mass. Activity calls are given as the source filed them. The rule behind the calls is not given here.

Data set [1] has as its system Staphylococcus aureus. The data set is described as follows: Antibiotic adjuvant activity against preestablished 24 hr-old Staphylococcus aureus CECT 976 assessed as potentiation of tobramycin-induced antibiofilm activity by measuring reduction of biomass at 10000 ug/ml measured after 24 hrs in presence of 1/4XMIC to MIC tobramycin by crystal violet staining method. The data set is classed as functional, organism-based. Conditions: dose 10000.0 µg/ml.

The subject of data set [2] is Staphylococcus aureus. As to the kind of experiment: Antibiotic adjuvant activity against Staphylococcus aureus CECT 976 assessed as potentiation of tobramycin-induced antibiofilm activity by measuring reduction of CFU of biofilm cells at 500 ug/ml measured after 24 hrs in presence of 1/2X to 1/8XMIC tobramycin by visual counting method. The class given is functional. Conditions: dose 500 µg/ml.

Data set [3] has as its system Staphylococcus aureus. The data set is described as follows: Antibacterial activity against Staphylococcus aureus CECT 976 assessed as inhibition of bacterial growth by measuring inhibition zone diameter at 1000 ug/ml incubated for 24 hrs in presence of methicillin by disc diffusion method (reference value: 19.5 +/- 1.29 mm). The class given is functional. The note with it: read-out: DIZ. In general terms: A growth-free zone around the sample is the usual read-out of agar diffusion tests.

Data set [4] has as its system Staphylococcus aureus. As to the kind of experiment: Inhibition of virulence production in Staphylococcus aureus CECT 976 biofilms assessed as diameter of protease halo at 1/2XMTC measured after 72 hrs in presence of 1/4XMIC tobramycin (reference value: 11.5 to 12.3 mm). The data set is classed as functional.
Data set [5] concerns Staphylococcus aureus. The data set is described as follows: Inhibition of virulence production in pre-established 24 hr-old Staphylococcus aureus CECT 976 biofilms assessed as diameter of protease halo at 10XMTC measured after 72 hrs (reference value: 12.5 to 13.3 mm). The data set is classed as functional.
Data set [6] deals with Staphylococcus aureus. The data set is described as follows: Antibiofilm activity against Staphylococcus aureus ATCC 6538 assessed as reduction in biomass at 700 ug/ml measured after 48 hrs by crystal violet staining based analysis. The class given is functional.
The test system of data set [7] is Pseudomonas aeruginosa. As to the kind of experiment: Antibiofilm activity against Pseudomonas aeruginosa ATCC 10145 assessed as reduction in biofilm cells culturability by measuring reduction in number of CFU at 500 to 1000 ug/ml measured after 24 hrs by visual counting method. Conditions: dose 500-1000 µg/ml. The class given is functional, organism-based.
Data set [8] deals with Staphylococcus aureus. As to the kind of experiment: Antibacterial activity against Staphylococcus aureus ATCC 6538 assessed as inhibition of bacterial growth measured after 24 hrs by broth microdilution method. The data set is classed as functional. (In broth dilution the organism is exposed to a series of concentrations in liquid medium.)
The subject of a further data set is Acinetobacter baumannii. The data set is described as follows: Antibacterial activity against Acinetobacter baumannii assessed as inhibition of bacterial growth incubated for 16 hrs by broth microdilution method. The class given is functional.
For data set [9], the system named is Staphylococcus aureus. As to the kind of experiment: Antibiofilm activity against preestablished 24 hr-old Staphylococcus aureus CECT 976 assessed as reduction in biofilm cells culturability by measuring log reduction of CFU of biofilm cells at 10XMTC measured after 24 hrs by visual counting method. The class given is functional.
Data set [10] has as its system Staphylococcus aureus. As to the kind of experiment: Antibiotic adjuvant activity against Staphylococcus aureus CECT 976 assessed as fold potentiation of tobramycin-induced antibiofilm activity by measuring reduction in biomass production at 500 ug/ml measured after 24 hrs in presence of 1/4XMIC tobramycin by crystal violet staining method relative to tobramycin treated control. The data set is classed as functional. Conditions: dose 500 µg/ml.

Data set [11] has as its system Pseudomonas aeruginosa. The data set is described as follows: Antibiofilm activity against Pseudomonas aeruginosa ATCC 10145 assessed as reduction in biomass production at 500 to 1000 ug/ml measured after 24 hrs by crystal violet staining method. The class given is functional, organism-based. Conditions: dose 500-1000 µg/ml.
Data set [12] concerns Pseudomonas aeruginosa. The data set is described as follows: Antibiofilm activity against Pseudomonas aeruginosa PAO1 biofilm assessed as reduction of bacterial biomass by crystal violet staining based analysis. The data set is classed as functional.
For the next data set, the system named is HepG2. The data set is described as follows: Protection against iron(III)-induced cytotoxicity in human HepG2 cells assessed as cell mass at 250 to 750 ug/ml measured after 24 hrs by SRB binding assay (reference value: 56.2 +/-5.4%). Conditions: dose 250-750 µg/ml, at 250 to 750 µg/mL. The data set is classed as functional.
The subject of data set [13] is Staphylococcus aureus. As to the kind of experiment: Antibiotic adjuvant activity against Staphylococcus aureus CECT 976 assessed as potentiation of tobramycin-induced antibiofilm activity by measuring reduction in metabolic activity of biofilm cells at 500 ug/ml in presence of tobramycin by resazurin staining based fluorescence analysis. The data set is classed as functional, organism-based. Conditions: dose 500.0 µg/ml. A general note: Alamar Blue is a resazurin reagent that responds to reducing activity.

Data set [14] relates to Pseudomonas aeruginosa. The data set is described as follows: Antibiotic adjuvant activity against Pseudomonas aeruginosa ATCC 10145 assessed as fractional inhibitory concentration index (MBC) at 125 ug/ml measured after 24 hrs in presence of ciprofloxacin by checkerboard assay. The data set is classed as functional. Conditions: dose 125 µg/ml.
Data set [15] concerns Staphylococcus aureus. The data set is described as follows: Inhibition of virulence production in Staphylococcus aureus CECT 976 biofilms assessed as diameter of lipases halo at 1XMTC measured after 48 hrs (reference value: 11.8 to 12.5 mm). The data set is classed as functional.
The test system of data set [16] is Staphylococcus aureus. As to the kind of experiment: Inhibition of virulence production in pre-established 24 hr-old Staphylococcus aureus CECT 976 biofilms assessed as diameter of lipases halo at 10XMTC measured after 48 hrs in presence of 1XMIC tobramycin (reference value: 11.8 to 12.3 mm). The class given is functional.
For data set [17], the system named is Pseudomonas aeruginosa. The data set is described as follows: Antibacterial activity against Pseudomonas aeruginosa ATCC 10145 assessed as inhibition of bacterial growth incubated for 24 hrs by broth microdilution method. The data set is classed as functional.
The test system of data set [18] is Staphylococcus aureus. As to the kind of experiment: Inhibition of virulence production in pre-established 24 hr-old Staphylococcus aureus CECT 976 biofilms assessed as diameter of gelatinases halo at 10XMTC measured after 48 hrs in presence of 1/4XMIC tobramycin (reference value: 10 to 11.3 mm). The class given is functional.
For data set [19], the system named is Pseudomonas aeruginosa. The data set is described as follows: Antibiofilm activity against Pseudomonas aeruginosa ATCC 10145 assessed as reduction in metabolic activity of biofilm cells at 500 to 1000 ug/ml by resazurin staining based fluorescence analysis. The class given is functional, organism-based. Conditions: dose 500-1000 µg/ml.
Data set [20] deals with Pseudomonas aeruginosa. The data set is described as follows: Antibiofilm activity against Pseudomonas aeruginosa ATCC 10145 assessed as reduction in biomass production at 500 ug/ml measured after 24 hrs by crystal violet staining method. The data set is classed as functional.
For data set [21], the system named is Pseudomonas aeruginosa. As to the kind of experiment: Antibacterial activity against Pseudomonas aeruginosa assessed as inhibition of bacterial growth incubated for 24 hrs by broth microdilution method. The data set is classed as functional.
Data set [22] relates to Staphylococcus aureus. As to the kind of experiment: Antibiotic adjuvant activity against preestablished 24 hr-old Staphylococcus aureus CECT 976 assessed as potentiation of tobramycin-induced antibiofilm activity by measuring log reduction of CFU of biofilm cells at 10000 ug/ml in presence of 1/4XMIC to MIC tobramycin measured after 24 hrs by visual counting method. The class given is functional. The note with it: dose 10000 µg/ml.

Data set [23] deals with Pseudomonas aeruginosa. As to the kind of experiment: Antibiotic adjuvant activity against Pseudomonas aeruginosa ATCC 10145 assessed as fractional inhibitory concentration index (MBC) at 15.6 ug/ml measured after 24 hrs in presence of ciprofloxacin by checkerboard assay. The data set is classed as functional. The note with it: dose 15.6 µg/ml.
The nature of data set [24]: Cytotoxicity against human HepG2 cells assessed as cell mass at 375 to 500 ug/ml measured after 24 hrs by SRB binding assay. The note with it: at 375 to 500 µg/mL, dose 375-500 µg/ml, read-out: Activity. The class given is toxicity, cell-based.
In data set [25] the test system is Staphylococcus aureus. As to the kind of experiment: Antibiotic adjuvant activity against preestablished 24 hr-old Staphylococcus aureus CECT 976 assessed as potentiation of tobramycin-induced antibiofilm activity by measuring reduction of biomass at 10000 ug/ml measured after 24 hrs in presence of 1/4XMIC tobramycin by crystal violet staining method. The data set is classed as functional.

Data set [26] relates to Staphylococcus aureus. The data set is described as follows: Antibacterial activity against Staphylococcus aureus assessed as inhibition of bacterial growth incubated for 24 hrs by broth microdilution method. The class given is functional.
Data set [27] relates to Staphylococcus aureus. The data set is described as follows: Antibacterial activity against Staphylococcus aureus assessed as loss of intracellular content at 5000 ug/ml incubated for 4 hrs by transmission electron microscopy. The class given is functional. Conditions: dose 5000 µg/ml.
For data set [28], the system named is Pseudomonas aeruginosa. The data set is described as follows: Antibiofilm activity against Pseudomonas aeruginosa ATCC 10145 assessed as reduction in biomass production at 1000 ug/ml measured after 24 hrs by crystal violet staining method. The data set is classed as functional.

For `O=c1cc(CO)occ1O` [KOJIC ACID], the outcome with Staphylococcus aureus [1], with Pseudomonas aeruginosa [7], in the data set on Pseudomonas aeruginosa [11], with Staphylococcus aureus [13] and with Pseudomonas aeruginosa [19] was inactive. The Activity is listed as 2 log10CFU/cm^-2 in the data set with Staphylococcus aureus [2]; 0 mm with Staphylococcus aureus [4]; 0 mm with Staphylococcus aureus [5]; 1.9 log10CFU/cm^-2 with Staphylococcus aureus [9]; over 61.8% in the data set on HepG2; 3.3 mm in the data set on Staphylococcus aureus [15]. The Activity in the data set on Staphylococcus aureus [16] was 2 mm; in the data set on Staphylococcus aureus [18], 0 mm. Moreover, in the data set with Staphylococcus aureus [3], the zone of inhibition at 1000 µg/mL was 16 mm. For the same compound, the inhibition at 700 µg/mL in the data set with Staphylococcus aureus [6] was determined as 40%. Moreover, the values for the MIC in the data set with Staphylococcus aureus [8], in the data set on Acinetobacter baumannii and in the data set with Pseudomonas aeruginosa [17] were 1400 µg/mL (≈ 9.85 mM), 3410 µg/mL (≈ 24 mM) and over 1000 µg/mL, respectively. Also, the “fold change (FC)” value in the data set on Staphylococcus aureus [10] came to 2.6. For the same compound, the “inhibition (INH)” value in the data set on Pseudomonas aeruginosa [12] is on record as 27%. In the data set on Pseudomonas aeruginosa [14], the “fractional inhibitory concentration index (FICI)” value stood at 1.

Take `Cc1occc(=O)c1O` [MALTOL]: the zone of inhibition at 1000 µg/mL in the data set with Staphylococcus aureus [3] turned out to be 15.5 mm. The Activity in the data set on Staphylococcus aureus [4] is on record as 0 mm; in the data set with Staphylococcus aureus [5], 0 mm; in the data set on Staphylococcus aureus [22], 2 log10CFU/cm^-2; in the data set with Staphylococcus aureus [15] it was 3 mm; with Staphylococcus aureus [16] it was 2.3 mm; in the data set on Staphylococcus aureus [27], 7.7%. Besides, the Activity with Staphylococcus aureus [18] is given as 0 mm. Besides, in the data set with Pseudomonas aeruginosa [20], the inhibition at 500 µg/mL is under 15%. Also, the MIC with Pseudomonas aeruginosa [21] was 4000 µg/mL (≈ 31.7 mM); in the data set on Staphylococcus aureus [26], 4000 µg/mL (≈ 31.7 mM); with Pseudomonas aeruginosa [17], over 1000 µg/mL. Moreover, the “fractional inhibitory concentration index (FICI)” value with Pseudomonas aeruginosa [23] was 1. Further, in data set [24], the viability at 24 h was 68%. For the same compound, the inhibition at 10000 µg/mL with Staphylococcus aureus [25] was 31%. Further, the result with Staphylococcus aureus [13] was inactive. In the data set with Pseudomonas aeruginosa [28], the inhibition at 1000 µg/mL came out at 40%.
